Experimental data reported in patent US10858339B2, “Aryl cyclopropyl-amino-isoquinolinyl amide compounds” (priority 2017, dated 2020).

Columns and labels:
[1] = biological target: ROCK2 (Homo sapiens, UniProt O75116); test: biochemical; conditions: ROCK2, Table 17
[2] = biological target: T1, IKKb (Homo sapiens, UniProt O14920); test: IKKb kinase activity; format: biochemical; conditions: Table 17
T1 sequence (O14920 1-756): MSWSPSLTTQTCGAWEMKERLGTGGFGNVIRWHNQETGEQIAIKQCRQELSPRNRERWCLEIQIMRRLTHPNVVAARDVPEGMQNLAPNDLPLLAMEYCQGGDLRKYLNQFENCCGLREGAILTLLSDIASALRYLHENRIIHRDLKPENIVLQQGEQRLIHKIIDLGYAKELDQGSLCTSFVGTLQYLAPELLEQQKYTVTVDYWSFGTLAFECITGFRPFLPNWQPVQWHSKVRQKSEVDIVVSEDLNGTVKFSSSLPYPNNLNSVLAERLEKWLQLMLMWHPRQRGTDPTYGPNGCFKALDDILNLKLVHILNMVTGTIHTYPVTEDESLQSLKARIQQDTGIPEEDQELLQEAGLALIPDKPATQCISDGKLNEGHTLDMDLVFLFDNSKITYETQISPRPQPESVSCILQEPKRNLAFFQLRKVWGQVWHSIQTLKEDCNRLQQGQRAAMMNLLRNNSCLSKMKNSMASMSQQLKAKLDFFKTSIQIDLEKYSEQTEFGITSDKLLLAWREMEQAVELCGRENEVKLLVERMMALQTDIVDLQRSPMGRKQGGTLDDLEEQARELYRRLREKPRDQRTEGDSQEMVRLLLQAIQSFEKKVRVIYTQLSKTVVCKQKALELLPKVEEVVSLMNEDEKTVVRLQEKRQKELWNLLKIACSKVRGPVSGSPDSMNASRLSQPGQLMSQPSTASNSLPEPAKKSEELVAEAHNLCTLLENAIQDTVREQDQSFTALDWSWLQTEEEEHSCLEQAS

[3] = biological target: ROCK1 (Homo sapiens, UniProt Q13464); test: ROCK kinase inhibition assay, ROCK1 enzyme; format: biochemical; conditions: ROCK1, Table 17;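 also: kinase reaction with 0.5 µM final ATP, 75 min at room temperature, remaining ATP read by luminescence, percent of DMSO-only control minus background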
[4] = test system: Porcine Trabecular Meshwork cells (PTM); test: PTM-HTM assay, actin fiber length in PTM cells; format: cell-based; conditions: Sus scrofa; Table 17; porcine trabecular meshwork cells; read-out: PTM
Experimental: Porcine Trabecular Meshwork cells (PTM) were isolated from freshly obtained enucleated porcine eyes. Immortalized Human Trabecular Meshwork cells (TM-1) were obtained through a kind gift from Donna Peters in the Department of Ophthalmology and Visual Sciences at the University of Wisconsin. Cells were plated onto fibronectin coated glass-bottom 96-well plates and allowed to attach overnight. Media was removed and replaced with test compound in media with 1% fetal bovine serum and incubated for various times. After incubation, cells were formaldehyde fixed, triton solubilized, and stained. PTM cells were stained with Alexa Fluor®488 phalloidin (F-actin) and Hoechst 33342 (nuclei). TM-1 cells were stained with anti-paxillin followed by Alexa Fluor®488 goat-anti-mouse IgG (focal adhesions) and Hoechst 33342 (nuclei). All staining reagents were obtained through Invitrogen. Images were collected on an INCell 2200 imager with a 20× objective. The actin fiber length and total area of focal adhesions were analyzed using custom algorithms developed in the INCell Developer Toolbox, v1.9.3. Data collected were converted to percent of control (untreated cells). Curves were fit to data in GraphPad Prizm using sigmoidal dose-response and constraining top and bottom to 100% and 0%, respectively.

[5] = biological target: T2, JAK3 (Homo sapiens, UniProt P52333); test: JAK kinase assay, JAK3 enzyme; format: biochemical; conditions: Table 17; read-out: JAK3
T2 sequence (P52333 1-1124): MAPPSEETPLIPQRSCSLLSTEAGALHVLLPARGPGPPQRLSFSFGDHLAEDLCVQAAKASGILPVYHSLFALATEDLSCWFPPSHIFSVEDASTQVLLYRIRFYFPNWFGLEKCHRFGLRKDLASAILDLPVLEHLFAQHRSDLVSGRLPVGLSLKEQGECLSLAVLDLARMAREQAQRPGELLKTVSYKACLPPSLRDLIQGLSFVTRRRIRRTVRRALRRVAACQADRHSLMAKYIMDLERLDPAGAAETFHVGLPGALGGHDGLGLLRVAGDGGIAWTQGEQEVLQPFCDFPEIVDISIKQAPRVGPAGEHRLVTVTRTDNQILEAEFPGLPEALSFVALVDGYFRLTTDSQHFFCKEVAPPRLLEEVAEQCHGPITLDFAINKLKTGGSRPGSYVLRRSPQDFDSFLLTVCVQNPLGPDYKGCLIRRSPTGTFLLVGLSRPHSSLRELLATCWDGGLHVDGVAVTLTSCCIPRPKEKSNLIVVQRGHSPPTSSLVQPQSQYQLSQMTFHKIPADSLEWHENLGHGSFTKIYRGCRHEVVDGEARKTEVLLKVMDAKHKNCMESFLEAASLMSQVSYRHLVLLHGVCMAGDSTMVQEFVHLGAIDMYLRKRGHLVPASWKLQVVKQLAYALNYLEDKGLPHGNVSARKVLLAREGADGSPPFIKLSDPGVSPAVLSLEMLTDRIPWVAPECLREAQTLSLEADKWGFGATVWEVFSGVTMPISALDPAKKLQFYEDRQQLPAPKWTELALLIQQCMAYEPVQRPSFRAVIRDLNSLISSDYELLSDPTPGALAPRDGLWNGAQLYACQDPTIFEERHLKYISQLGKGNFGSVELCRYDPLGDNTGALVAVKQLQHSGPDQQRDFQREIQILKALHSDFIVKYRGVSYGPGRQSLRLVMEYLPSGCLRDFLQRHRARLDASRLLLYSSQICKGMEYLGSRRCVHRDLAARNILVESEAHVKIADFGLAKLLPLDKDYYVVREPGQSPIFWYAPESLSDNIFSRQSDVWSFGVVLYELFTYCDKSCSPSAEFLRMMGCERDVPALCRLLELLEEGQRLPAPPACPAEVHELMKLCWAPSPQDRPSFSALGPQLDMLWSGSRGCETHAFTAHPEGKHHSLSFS

[6] = Rabbit IOP after intracameral injection; format: in vivo; conditions: intracameral injection of a formulation, FIG. 1
Text: Examples of such assays are described in the following reference, incorporated herein by reference: C. Liljebris, G. Selen, B. Resul, J. Sternschantz, and U. Hacksell, “Derivatives of 17-phenyl-18,19,20-trinorprostaglandin F2α Isopropyl Ester: Potential Anti-glaucoma Agents”, Journal of Medicinal Chemistry 1995, 38 (2): 289-304.

Sequence of ROCK1 (Q13464 whole entry, species assumed): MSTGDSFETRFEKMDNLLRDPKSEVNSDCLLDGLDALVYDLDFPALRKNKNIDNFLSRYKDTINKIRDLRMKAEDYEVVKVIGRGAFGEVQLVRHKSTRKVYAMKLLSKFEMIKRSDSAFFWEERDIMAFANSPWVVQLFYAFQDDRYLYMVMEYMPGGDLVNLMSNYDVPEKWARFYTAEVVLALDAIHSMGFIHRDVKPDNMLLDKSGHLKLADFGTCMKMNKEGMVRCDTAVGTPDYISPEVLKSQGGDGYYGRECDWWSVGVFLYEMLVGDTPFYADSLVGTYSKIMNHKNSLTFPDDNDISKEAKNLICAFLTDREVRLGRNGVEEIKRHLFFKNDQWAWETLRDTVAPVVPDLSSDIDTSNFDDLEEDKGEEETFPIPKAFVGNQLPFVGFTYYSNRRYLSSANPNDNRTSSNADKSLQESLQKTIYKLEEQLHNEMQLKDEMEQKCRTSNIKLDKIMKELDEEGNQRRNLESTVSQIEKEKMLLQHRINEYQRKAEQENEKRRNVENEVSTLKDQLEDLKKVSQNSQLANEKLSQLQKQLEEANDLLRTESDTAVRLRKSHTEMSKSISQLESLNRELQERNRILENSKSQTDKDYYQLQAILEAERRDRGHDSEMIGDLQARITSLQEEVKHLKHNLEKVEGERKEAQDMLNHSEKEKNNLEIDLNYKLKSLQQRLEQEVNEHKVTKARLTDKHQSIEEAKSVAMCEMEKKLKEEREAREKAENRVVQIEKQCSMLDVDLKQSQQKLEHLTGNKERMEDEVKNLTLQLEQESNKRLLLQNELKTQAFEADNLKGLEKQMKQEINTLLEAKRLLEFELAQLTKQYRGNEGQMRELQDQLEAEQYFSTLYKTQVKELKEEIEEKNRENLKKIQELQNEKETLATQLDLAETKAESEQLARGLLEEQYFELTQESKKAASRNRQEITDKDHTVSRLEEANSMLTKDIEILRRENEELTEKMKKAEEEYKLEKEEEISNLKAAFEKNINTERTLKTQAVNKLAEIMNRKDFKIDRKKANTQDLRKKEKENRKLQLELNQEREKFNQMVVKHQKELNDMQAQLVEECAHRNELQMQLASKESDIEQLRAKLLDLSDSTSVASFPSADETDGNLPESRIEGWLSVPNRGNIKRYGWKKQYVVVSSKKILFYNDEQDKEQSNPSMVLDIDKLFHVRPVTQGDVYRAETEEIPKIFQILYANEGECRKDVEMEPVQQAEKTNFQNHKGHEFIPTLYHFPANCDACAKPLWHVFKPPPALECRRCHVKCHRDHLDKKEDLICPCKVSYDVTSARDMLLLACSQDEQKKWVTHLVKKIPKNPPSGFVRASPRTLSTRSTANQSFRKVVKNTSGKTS
Sequence of ROCK2 (O75116 whole entry, species assumed): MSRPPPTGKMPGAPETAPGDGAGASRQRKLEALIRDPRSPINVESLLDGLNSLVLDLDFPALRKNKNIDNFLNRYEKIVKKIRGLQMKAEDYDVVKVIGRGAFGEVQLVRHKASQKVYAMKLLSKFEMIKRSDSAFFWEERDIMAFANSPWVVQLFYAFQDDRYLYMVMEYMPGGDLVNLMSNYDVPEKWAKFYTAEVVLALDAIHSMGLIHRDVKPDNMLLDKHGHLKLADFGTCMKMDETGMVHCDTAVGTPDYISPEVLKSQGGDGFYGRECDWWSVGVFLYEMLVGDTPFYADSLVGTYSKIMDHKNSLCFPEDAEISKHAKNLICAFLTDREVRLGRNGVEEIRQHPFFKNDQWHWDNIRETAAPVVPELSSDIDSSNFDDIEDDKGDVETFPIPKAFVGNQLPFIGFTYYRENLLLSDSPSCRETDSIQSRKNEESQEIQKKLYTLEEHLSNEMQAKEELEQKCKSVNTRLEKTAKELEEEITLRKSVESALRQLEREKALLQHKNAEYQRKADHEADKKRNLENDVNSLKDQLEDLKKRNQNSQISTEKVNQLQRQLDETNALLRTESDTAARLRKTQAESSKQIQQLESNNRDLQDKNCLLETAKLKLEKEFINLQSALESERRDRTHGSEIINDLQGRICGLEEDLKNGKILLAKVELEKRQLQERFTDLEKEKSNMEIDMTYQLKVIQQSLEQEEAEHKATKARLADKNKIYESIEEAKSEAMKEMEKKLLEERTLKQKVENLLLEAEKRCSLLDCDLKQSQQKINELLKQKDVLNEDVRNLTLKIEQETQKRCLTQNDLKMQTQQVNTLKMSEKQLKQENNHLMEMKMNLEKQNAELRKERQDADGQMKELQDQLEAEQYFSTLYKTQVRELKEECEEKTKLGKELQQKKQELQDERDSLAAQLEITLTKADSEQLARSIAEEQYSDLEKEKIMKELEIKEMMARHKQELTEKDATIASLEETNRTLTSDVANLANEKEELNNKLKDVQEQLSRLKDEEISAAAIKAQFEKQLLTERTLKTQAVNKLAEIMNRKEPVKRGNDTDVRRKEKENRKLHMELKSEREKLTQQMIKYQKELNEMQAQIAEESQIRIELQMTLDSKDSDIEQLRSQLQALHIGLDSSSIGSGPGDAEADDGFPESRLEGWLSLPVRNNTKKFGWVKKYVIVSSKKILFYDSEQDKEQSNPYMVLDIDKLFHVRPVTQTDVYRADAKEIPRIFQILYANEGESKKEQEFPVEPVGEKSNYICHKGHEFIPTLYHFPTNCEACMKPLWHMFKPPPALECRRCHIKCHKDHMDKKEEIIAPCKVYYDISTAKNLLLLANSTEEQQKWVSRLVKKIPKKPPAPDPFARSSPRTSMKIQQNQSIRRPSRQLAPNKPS

Compound | Ki [1] [nM] | Ki [2] [nM] | Ki [3] [nM] | IC50 [4] [nM] | Ki [5] [nM] | changes (reductions) in rabbit IOP [6]
O=C(Nc1ccc2cnccc2c1F)[C@@H]1CC1c1ccc(S(=O)(=O)Nc2ccccn2)cc1 (mixture of isomers) [N-(5-fluoroisoquinolin-6-yl)-2-(4-(N-(pyridin-2-yl)sulfamoyl)phenyl)cyclopropane-1-carboxamide] | 4.9 | 144 | 10.3 | 290 | 130 | 
(1R,2R)—N-(fluoroisoquinolin-6-yl)-2-(4-(pyridinylmethyl)phenyl)cyclopropane-1-carboxamide |  |  |  |  |  | reductions
